Read-outs that look alike come from different tables or passages of the source.
Assays:
Type in all cases: biochemical, Gluconobacter oxydans DSM No. 4025 (FERM BP-3812)
[1] = molecular target: T1, SNDH II (aldehyde dehydrogenase) (Ketogulonicigenium vulgare, UniProt Q402A8); experiment: Effect of inhibitors and metals on L-sorbosone dehydrogenase activity, photometrical DCIP assay
Protocol: (§1) The reaction mixture consisted of 0.1 mM DCIP, 1.0 mM PMS, 50 mM potassium phosphate buffer (pH 7.0), 1.0 μM PQQ, 2 to 100 mM substrate (L-sorbosone, D-glucosone, D-glucose, etc.) and enzyme solution in a final volume of 100 μl water, said reaction mixture was prepared just before the assay. The reaction was started at 25° C. with L-sorbosone, and the enzyme activity was measured as the initial reduction rate of DCIP at 600 nm. One unit of the enzyme activity was defined as the amount of the enzyme catalyzing the reduction of 1 μmol DCIP per minute. The extinction coefficient of DCIP at pH 7.0 was taken as 14.2 mM^−1. A reference cuvette contained all the above constituents except for L-sorbosone.
The effects of metal ions and inhibitors on the L-sorbosone dehydrogenase activity of the enzyme were examined by measuring the activity using the same assay method as described under 1b) above. Each compound solution was stirred into the basal reaction mixture and the reaction was started with the addition of the enzyme.
Each compound was added to the reaction mixture at a concentration of 1.0 mM, with the exception that the concentrations of EDTA, NaN3 and monoiodoacetate were 5.0 mM.

[2] = molecular target: T1, SNDH II (aldehyde dehydrogenase); experiment: Substrate specificity of the purified enzyme, photometrical DCIP assay; conditions: for Relative activity compared with that for L-sorbosone (2 mM): at both pH 7.5 and 9.0, D-glucosone 2 mM, others 100 mM; for Product (deduced product of the oxidation of the substrate): substrates of Table 1A; for Relative activity (%): L-sorbosone and D-glucosone 2 mM, other substrates 100 mM, L-sorbosone = 100
Protocol: as §1
a) The substrate specificity of the enzyme was determined using the same enzyme assay method as described under 1b) above with the exception of using 100 mM potassium phosphate (pH 7.5) or 100 mM Tris-HCl (pH 9.0) as buffer. The relative activity of SNDH II for D-glucosone (2 mM), D-glucose (100 mM), and D-xylose (100 mM) was higher than that for L-sorbosone (2 mM) at both pH 7.5 and 9.0. However, the relative activity for L-sorbose (100 mM), D-sorbitol (100 mM), and L-gulono-γ-lactone (100 mM) was lower than 1% of that for L-sorbosone at both pH 7.5 and 9.0.

[3] = molecular target: T1, SNDH II (aldehyde dehydrogenase); experiment: Electron acceptor suitability for conversion of L-sorbosone; conditions: conversion of L-sorbosone to vitamin C and/or 2-KGA
Text: This was affirmed by the failure of the enzyme to convert L-sorbosone to vitamin C and/or 2-KGA using oxygen as a possible electron acceptor. Furthermore, no oxygen consumption was detected in the reaction mixture as detected with a dissolved oxygen probe. […] However, other conventional electron acceptors can be utilized in conjunction with the enzyme of this invention. Preferred electron acceptors are phenazine methosulfate (PMS), 2,6-dichlorophenolindophenol (DCIP), ferricyanide and cytochrome c. There is no minimum amount of electron acceptors which must be present for at least some of the aldehyde substrate to be converted to its corresponding acid. However, the amount of substrate which can be oxidized depends on the amount of the particular electron acceptor and its electron accepting characteristics.

[4] = compound at 1.0 mM, None = 100.0
[5] = pH 7.5, 100 mM potassium phosphate

T1 sequence (Q402A8 entry or part of it): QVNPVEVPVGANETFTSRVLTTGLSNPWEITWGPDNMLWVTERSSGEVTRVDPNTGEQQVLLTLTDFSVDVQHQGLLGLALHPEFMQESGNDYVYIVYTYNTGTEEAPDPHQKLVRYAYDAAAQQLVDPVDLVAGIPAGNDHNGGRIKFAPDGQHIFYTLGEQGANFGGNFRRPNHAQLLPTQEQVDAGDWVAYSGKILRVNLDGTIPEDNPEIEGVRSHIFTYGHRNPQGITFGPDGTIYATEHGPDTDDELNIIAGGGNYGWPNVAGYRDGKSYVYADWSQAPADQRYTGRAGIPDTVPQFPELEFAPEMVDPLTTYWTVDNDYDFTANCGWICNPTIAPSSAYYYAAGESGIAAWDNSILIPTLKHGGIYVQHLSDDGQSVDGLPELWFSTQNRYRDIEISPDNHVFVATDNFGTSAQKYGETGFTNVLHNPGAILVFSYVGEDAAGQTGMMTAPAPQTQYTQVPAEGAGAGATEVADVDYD

O.O.[Ca+2].[Cl-].[Cl-] [CaCl2.2H2O]
Relative activity (%) [1, 4]: 94.7%

O.O.O.O.O.O.[Cl-].[Cl-].[Co+2] [CoCl2.6H2O]
Relative activity (%) [1, 4]: 60.8%
Effect on the enzyme activity ([1]; metal ions, 1.0 mM): inhibited

O=S(=O)([O-])[O-].[Cu+2] [CuSO4]
Relative activity (%) [1, 4]: <1%
Effect on the enzyme activity ([1]; metal ions, 1.0 mM): inhibited

O=C[C@H](O)[C@@H](O)[C@H](O)[C@H](O)CO [D-Glucose]
Relative activity compared with that for L-sorbosone (2 mM) [2]: higher
Product (deduced product of the oxidation of the substrate) [2]: D-Gluconate

O=CC(=O)[C@@H](O)[C@H](O)[C@H](O)CO [D-Glucosone]
Relative activity compared with that for L-sorbosone (2 mM) [2]: higher
Relative activity (%) [2, 5]: 483%
Product (deduced product of the oxidation of the substrate) [2]: D-iso-Ascorbic acid/2-Keto-D-gluconate

OC[C@@H](O)[C@@H](O)[C@H](O)[C@@H](O)CO [D-Sorbitol]
Relative activity (%) [2, 5]: <1%
Relative activity (%) ([2]; pH 9.0, 100 mM Tris-HCl): <1%

O=C[C@H](O)[C@@H](O)[C@H](O)CO [D-Xylose]
Relative activity compared with that for L-sorbosone (2 mM) [2]: higher
Product (deduced product of the oxidation of the substrate) [2]: D-Xylonic acid

O=C(O)CN(CCN(CC(=O)O)CC(=O)O)CC(=O)O [EDTA]
Relative activity (%) [1]: 97.9%

O=S(=O)([O-])[O-].O=S(=O)([O-])[O-].O=S(=O)([O-])[O-].[Fe+3].[Fe+3] [Fe2(SO4)3.xH2O]
Relative activity (%) [1, 4]: 73.2%
Effect on the enzyme activity ([1]; metal ions, 1.0 mM): inhibited

O=C1O[C@H]([C@@H](O)CO)[C@H](O)[C@@H]1O [L-Gulono-γ-lactone]
Relative activity (%) [2, 5]: <1%
Relative activity (%) ([2]; pH 9.0, 100 mM Tris-HCl): <1%

O=C(CO)[C@@H](O)[C@H](O)[C@@H](O)CO [L-Sorbose]
Relative activity (%) [2, 5]: <1%
Relative activity (%) ([2]; pH 9.0, 100 mM Tris-HCl): <1%

O=CC(=O)[C@@H](O)[C@H](O)[C@@H](O)CO [L-Sorbosone]
Relative activity (%) [2, 5]: 100%
Relative activity (%) ([2]; pH 9.0, 100 mM Tris-HCl): 100%
Product (deduced product of the oxidation of the substrate) [2]: Vitamin C/2-KGA

[Cl-].[Cl-].[Mg+2] [MgCl2]
Relative activity (%) [1, 4]: 88.5%

O=C(O)CI [Monoiodoacetate]
Effect on the enzyme activity [1]: strongly inhibited
Relative activity (%) [1]: 34.7%

NC(=O)c1ccc[n+]([C@H]2O[C@@H](COP(=O)([O-])OP(=O)(O)OC[C@H]3O[C@@H](n4cnc5c(N)ncnc54)[C@H](OP(=O)(O)O)[C@@H]3O)[C@H](O)[C@@H]2O)c1 [NADP]
Suitability as electron acceptor [3]: not suitable electron acceptors

NC(=O)c1ccc[n+]([C@@H]2O[C@H](COP(=O)([O-])OP(=O)(O)OC[C@H]3O[C@@H](n4cnc5c(N)ncnc54)[C@H](O)[C@@H]3O)[C@@H](O)[C@H]2O)c1 [NAD]
Suitability as electron acceptor [3]: not suitable electron acceptors

[N-]=[N+]=[N-].[Na+] [NaN3]
Relative activity (%) ([1]; compound at 5.0 mM, None = 100.0): 98.4%

O.O.O.O.O.O.O=S(=O)([O-])[O-].[Ni+2] [NiSO4.6H2O]
Relative activity (%) [1, 4]: 82.9%
Effect on the enzyme activity ([1]; metal ions, 1.0 mM): inhibited

[Cl][Ti]([Cl])([Cl])[Cl] [TiCl4]
Relative activity (%) [1, 4]: 95.9%

[Cl-].[Cl-].[Zn+2] [ZnCl2]
Relative activity (%) [1, 4]: 64.9%
Effect on the enzyme activity ([1]; metal ions, 1.0 mM): inhibited

O=O [oxygen]
Suitability as electron acceptor [3]: does not work

Source: patent publication US20050153412A1, “Aldehyde dehydrogenase II” (priority 2002, published 2005)
